Converted amounts (≈) assume the structure as drawn.
Assays:
Type in all cases: functional
Enterococcus faecalis [1] = assay: Antibacterial activity against multidrug resistant Enterococcus faecalis ATCC 51299
Staphylococcus aureus [2] = assay: Antibacterial activity against methicillin resistant Staphylococcus aureus clinical isolate 003
Enterococcus faecalis [3] = assay: Antibacterial activity against Enterococcus faecalis clinical isolate 7
Staphylococcus aureus [4] = assay: Antibacterial activity against Staphylococcus aureus clinical isolate 29
Enterococcus faecalis [5] = assay: Antibacterial activity against Enterococcus faecalis clinical isolate 13
Staphylococcus aureus [6] = assay: Antibacterial activity against methicillin resistant Staphylococcus aureus clinical isolate 011
Staphylococcus aureus [7] = assay: Antibacterial activity against methicillin resistant Staphylococcus aureus clinical isolate 031
Staphylococcus aureus [8] = assay: Antibacterial activity against Staphylococcus aureus clinical isolate 31

Compound | MIC (Enterococcus faecalis [1]) [µg/mL] | MIC (Staphylococcus aureus [2]) [µg/mL] | further results
CCCCCc1c(-c2ccc(OC)cc2OC)oc2cc(OC)cc(OC)c2c1=O | > 64 | > 64 | –
CCCCCCc1c(-c2ccc(OCCCCNCc3ccc(F)cc3)cc2OCCCCNCc2ccc(F)cc2)oc2cc(OC)cc(O)c2c1=O | 16 (≈ 21.5 µM) | 16 (≈ 21.5 µM) | MIC (Enterococcus faecalis [3]): 32 µg/mL (≈ 43.1 µM); MIC (Staphylococcus aureus [4]): 16 µg/mL (≈ 21.5 µM); MIC (Enterococcus faecalis [5]): 8 µg/mL (≈ 10.8 µM); MIC (Staphylococcus aureus [6]): 16 µg/mL (≈ 21.5 µM); MIC (Staphylococcus aureus [7]): 16 µg/mL (≈ 21.5 µM); MIC (Staphylococcus aureus [8]): 8 µg/mL (≈ 10.8 µM)
CCc1c(-c2ccc(O)cc2O)oc2cc(O)cc(O)c2c1=O | > 64 | > 64 | –
CC(C)=CCCC1=C[C@@H](c2c(O)cc3oc(-c4ccc(O)cc4O)cc(=O)c3c2O)[C@H](C(=O)c2ccc(O)cc2O)[C@@H](c2ccc(O)cc2O)C1 | 10 (≈ 14.4 µM) | 5 (≈ 7.22 µM) | –
COc1ccc(-c2oc3cc(OC)cc(OC)c3c(=O)c2CCCCc2ccccc2)c(OC)c1 | > 64 | > 64 | –
CC(C)=CCc1c(-c2ccc(O)c3c2OC(C)(C)C=C3)oc2cc(O)cc(O)c2c1=O [KUWANON A] | 10 (≈ 23.8 µM) | 5 (≈ 11.9 µM) | –
CCCCc1c(-c2ccc(OC)cc2OC)oc2cc(OC)cc(OC)c2c1=O | > 64 | > 64 | –
CCCCCCNCCCCOc1ccc(-c2oc3cc(OC)cc(O)c3c(=O)c2CCCCCC)c(OCCCCNCCCCCC)c1 | 64 (≈ 92.1 µM) | 8 (≈ 11.5 µM) | MIC (Enterococcus faecalis [3]): 32 µg/mL (≈ 46 µM); MIC (Staphylococcus aureus [4]): 16 µg/mL (≈ 23 µM); MIC (Enterococcus faecalis [5]): 64 µg/mL (≈ 92.1 µM); MIC (Staphylococcus aureus [6]): 16 µg/mL (≈ 23 µM); MIC (Staphylococcus aureus [7]): 8 µg/mL (≈ 11.5 µM); MIC (Staphylococcus aureus [8]): 4 µg/mL (≈ 5.76 µM)
C=CCc1c(-c2ccc(O)cc2O)oc2cc(OC)cc(O)c2c1=O | 64 (≈ 188 µM) | 32 (≈ 94 µM) | –
CC(C)=CCCc1c(-c2ccc(O)cc2O)oc2cc(O)cc(O)c2c1=O | 32 (≈ 86.9 µM) | 32 (≈ 86.9 µM) | –
CCCCCCCCc1c(-c2ccc(O)cc2O)oc2cc(O)cc(O)c2c1=O | 16 (≈ 40.2 µM) | 16 (≈ 40.2 µM) | –
CCCCCCc1c(-c2ccc(OCCCCN(CC)CC)cc2OCCCCN(CC)CC)oc2cc(OC)cc(O)c2c1=O | 4 (≈ 6.26 µM) | 2 (≈ 3.13 µM) | MIC (Enterococcus faecalis [3]): 4 µg/mL (≈ 6.26 µM); MIC (Staphylococcus aureus [4]): 2 µg/mL (≈ 3.13 µM); MIC (Enterococcus faecalis [5]): 2 µg/mL (≈ 3.13 µM); MIC (Staphylococcus aureus [6]): 2 µg/mL (≈ 3.13 µM); MIC (Staphylococcus aureus [7]): 2 µg/mL (≈ 3.13 µM); MIC (Staphylococcus aureus [8]): 1 µg/mL (≈ 1.57 µM)
CCCc1c(-c2ccc(OC)cc2OC)oc2cc(OC)cc(OC)c2c1=O | > 64 | > 64 | –
O=c1c(CCCCc2ccccc2)c(-c2ccc(O)cc2O)oc2cc(O)cc(O)c12 | 32 (≈ 76.5 µM) | 16 (≈ 38.2 µM) | –
CCCCCCCCCCCCCCCCc1c(-c2ccc(O)cc2O)oc2cc(O)cc(O)c2c1=O | > 64 | > 64 | –
CCCc1c(-c2ccc(O)cc2O)oc2cc(OC)cc(O)c2c1=O | 64 (≈ 187 µM) | 32 (≈ 93.5 µM) | –
CCCCCCc1c(-c2ccc(OC)cc2OC)oc2cc(OC)cc(OC)c2c1=O | > 64 | > 64 | –
C=CCc1c(-c2ccc(O)cc2O)oc2cc(O)cc(O)c2c1=O | > 64 | 64 (≈ 196 µM) | –
CCCCCCCCCCc1c(-c2ccc(OC)cc2OC)oc2cc(OC)cc(OC)c2c1=O | > 64 | > 64 | –
CCc1c(-c2ccc(O)cc2O)oc2cc(OC)cc(O)c2c1=O | 64 (≈ 195 µM) | > 64 | –
CCCc1c(-c2ccc(O)cc2O)oc2cc(O)cc(O)c2c1=O | > 64 | 64 (≈ 195 µM) | –
COc1cc(O)c2c(=O)c(CCC/C=C(\C)CCC=C(C)C)c(-c3ccc(O)cc3O)oc2c1 | 32 (≈ 68.9 µM) | 16 (≈ 34.4 µM) | –
CCCCCc1c(-c2ccc(O)cc2O)oc2cc(OC)cc(O)c2c1=O | 16 (≈ 43.2 µM) | 8 (≈ 21.6 µM) | –
COc1cc(O)c2c(=O)c(CCC=C(C)C)c(-c3ccc(O)cc3O)oc2c1 | 32 (≈ 83.7 µM) | 16 (≈ 41.8 µM) | –
CCCCc1c(-c2ccc(O)cc2O)oc2cc(OC)cc(O)c2c1=O | 32 (≈ 89.8 µM) | 16 (≈ 44.9 µM) | –
COc1ccc(-c2oc3cc(OC)cc(OC)c3c(=O)c2CCC=C(C)C)c(OC)c1 | > 64 | > 64 | –
CCCCCCc1c(-c2ccc(OCCCCNCc3ccc(Br)cc3)cc2OCCCCNCc2ccc(Br)cc2)oc2cc(OC)cc(O)c2c1=O | > 64 | 64 (≈ 74 µM) | MIC (Enterococcus faecalis [3]): > 64 µg/mL; MIC (Staphylococcus aureus [4]): > 64 µg/mL; MIC (Enterococcus faecalis [5]): > 64 µg/mL; MIC (Staphylococcus aureus [6]): 64 µg/mL (≈ 74 µM); MIC (Staphylococcus aureus [8]): 64 µg/mL (≈ 74 µM)
CCCCCCCCCCCCc1c(-c2ccc(OC)cc2OC)oc2cc(OC)cc(OC)c2c1=O | > 64 | > 64 | –
CCCCCCCCc1c(-c2ccc(OC)cc2OC)oc2cc(OC)cc(OC)c2c1=O | > 64 | > 64 | –
CCCCCCCCCCCCCCCCc1c(-c2ccc(OC)cc2OC)oc2cc(OC)cc(OC)c2c1=O | > 64 | > 64 | –

From ChEMBL document CHEMBL5512659, “Structure optimizing of flavonoids against both MRSA and VRE” (Eur J Med Chem, 2024)
